From paper PMC8564858, “Flavonoid-based inhibitors of the Phi-class glutathione transferase from black-grass to combat multiple herbicide resistance” (Organic & Biomolecular Chemistry, 2021)

Experiments:
[1] = test system: AmGSTF1; test: CDNB assay: inhibition of AmGSTF1-catalysed glutathionylation of CDNB; type: biochemical, Alopecurus myosuroides; conditions: for CDNB Assay % Inhibition: three replicate measurements
[2] = test system: MHR black-grass (Peldon); test: Petri-dish seedling assay with pendimethalin; type: in vivo, Alopecurus myosuroides
[3] = test system: AtGSTF8; test: CDNB assay on AtGSTF8 (selectivity); type: biochemical, A. thaliana
Experimental: Having established flavonoids as AmGSTF1 ligands with the potential to reverse the MHR phenotype, the scope for optimising their activity, selectivity, and physicochemical profile using synthetic modifications was explored. Using 5,7-dihydroxyflavone (chrysin, 2) as precursor (Fig. 3a), the synthesis of flavonoid derivatives with simple A-ring modifications were undertaken. Each compound was then assessed for its binding to the protein target using both thermal shift assays and by the inhibition of enzyme activity toward CDNB (Table S4 ^‡). The 2-methylchromen-4-one derivative 12 (Table S4; ^‡ entry 11) was synthesised to assess the effect of replacement of the aryl ring at the 2-position (B-ring) with a smaller group. […] Alternative 2-substituents, including amides 16, cyclic amines 17 and (hetero)arenes 18, each introduced from the corresponding carboxylic acid 13, thioether 14 and chloride 15 using standard acylation, SNAr and Pd-catalysed cross-coupling reactions (Fig. 3b). […] However, for these compounds, the assessment of activity was difficult due to their low solubility in aqueous solutions. […] To confirm if the binding observed with these synthetic analogues was specific to AmGSTF1, as determined by the inhibition of CDNB activity, the effect of this flavonoid series on an alternative well described phi class GST from A. thaliana (AtGSTF8), was investigated. […]

[4] = test system: MHR black-grass plants; test: Spray assay on three-leaf stage plants with pendimethalin; type: in vivo, Alopecurus myosuroides; conditions: three-leaf stage (BBCH 13); 70 μM compound 55, 24 h prior to spray with 35 μM pendimethalin
[5] = test system: AmGSTF1; test: Thermal shift assay; type: binding, Alopecurus myosuroides; conditions: difference in melting temperature compared to no ligand
[6] = test system: HS black-grass (Rothamsted); test: Petri-dish seedling assay with pendimethalin; type: in vivo, Alopecurus myosuroides; conditions: 70 uM compound 55 for 24 h prior to 5 ppm pendimethalin
[7] = Aqueous solubility (qualitative); type: physicochemical

CCCCCCCCCCC(Oc1cc(O)cc2oc(-c3ccc(O)c(O)c3)c(O)c(=O)c12)C(=O)O (stereo not shown) [compound 55]
Inhibitory activity toward AmGSTF1 in the CDNB assay (in words) [1]: excellent inhibitory activity
CDNB Assay % Inhibition ([1]; 1 µM compound): 70%
CDNB Assay % Inhibition ([1]; 10 µM compound): 96%
CDNB Assay % Inhibition ([1]; 100 µM compound): 100%
Resistance to pendimethalin in MHR seedlings ([2]; 70 μM compound 55, 24 h prior to 5 ppm pendimethalin, compared to untreated seedlings): reduced
Percentage of normal shoot 14 d after treatment ([2]; Peldon-MHR, 70 uM compound 55 for 24 h prior to 5 ppm pendimethalin): 66%
Selectivity toward AmGSTF1 as compared to AtGSTF8 [3]: good selectivity
Pendimethalin resistance in established MHR plants [4]: reversed pendimethalin resistance
Thermal Shift Assay ∆Tm ([5]; 1 µM): 0.20
Thermal Shift Assay ∆Tm ([5]; 10 µM): 2.17
Thermal Shift Assay ∆Tm ([5]; 100 µM): 1.10
Percentage of normal shoot 14 d after treatment [6]: 50%
Solubility in aqueous solutions (in words) [7]: sufficient soluble
